Earlier results, collected in patent US20070106232A1, “METHOD AND APPARATUS FOR EXTENDING FEEDING TUBE LONGEVITY” (priority 2003, published 2007).
Numbered stars: 1 amine (or outer) side, 2 acyl side, 3 side chain; on linkers, the order of the positions; unused ones are H or OH. Bridge positions count the residues as written; N and C are the ends. Square brackets hold non-standard residues; d marks the D form. Peptide text beside a SMILES is read from it. * marks the point of attachment. hTyr(3S-OH,4S-OH,3'-OSO3H) = N[C@H](C(=O)O)[C@H](O)[C@@H](O)c1ccc(O)c(OS(=O)(=O)O)c1; Orn(4R-OH,5R-OH) = O=C([C@H](C[C@@H](O)[C@@H](O)N[*:3])N[*:1])[*:2]; Pro(3S-OH,4S-Me) = C[C@H]1CN[C@H](C(=O)O)[C@H]1O; X1 = CCCCCOc1ccc(-c2cc(-c3ccc(C(=O)*)cc3)no2)cc1; Gln(3R-OH) = NC(=O)C[C@@H](O)[C@H](N)C(=O)O; Hyp = O=C(O)[C@@H]1C[C@@H](O)CN1

Key:
[1] = tested on: feeding tube colonized with Candida; conditions: nystatin suspension 500,000 units/5 mL in the off cycle; amphotericin B 1 mg/10 mL for one week; tube lumen filled
[2] = tested on: Candida albicans and Candida parapsilosis biofilms
[3] = tested on: yeast crust on inner surface of the tube; conditions: segments incubated in vitro overnight, endoscopic brush next day
[4] = tested on: Candida albicans biofilms; conditions: preformed Candida albicans biofilms; physiological concentrations; time-kill
[5] = tested on: Candida albicans biofilms
Candida spp. = conditions: including azole-resistant (Candida krusei), less susceptible (C. dubliniensis, C. glabrata) or amphotericin B resistant isolates
[6] = tested on: fungal colonization of feeding tubes; conditions: pre-procedural preparation of the oropharynx, 1%

For `C[C@@H]1[C@H](O)[C@@H](C)/C=C/C=C/C=C/C=C/C=C/C=C/C=C/[C@H](O[C@@H]2O[C@H](C)[C@@H](O)[C@H](N)[C@@H]2O)C[C@@H]2O[C@](O)(C[C@@H](O)C[C@@H](O)[C@H](O)CC[C@@H](O)C[C@@H](O)CC(=O)O[C@H]1C)C[C@H](O)[C@H]2C(=O)O` [amphotericin B], the “clearing of a feeding tube colonized with Candida” value [1] is given as “unsuccessful”, the “activity against Candida biofilms” value [2] is given as “resistant” and the “clearing the yeast crust from the inner surface of the tube” value [3] is given as “unsuccessful”.
In the case of `CC[C@H](C)C[C@H](C)CCCCCCCCC(=O)N[C@H]1C[C@@H](O)[C@@H](NCCN)NC(=O)[C@@H]2[C@@H](O)CCN2C(=O)[C@H]([C@H](O)CCN)NC(=O)[C@H]([C@H](O)[C@@H](O)c2ccc(O)cc2)NC(=O)[C@@H]2C[C@@H](O)CN2C(=O)[C@H]([C@@H](C)O)NC1=O` [caspofungin], the killing [4] is listed as ≥ 99%, the “effect of coating of biomaterials on subsequent biofilm development by Candida albicans” value ([5]; biomaterials coated with drug) is listed as “inhibitory effect” and the “effects on preformed Candida albicans biofilms” value ([5]; scanning electron microscopy and confocal scanning laser microscopy) is listed as “altered the cellular morphology and the metabolic status”. The “minimum inhibitory concentration at which 50% of the sessile cells were inhibited” value ([5]; sessile Candida albicans cells) was “well within the drug's therapeutic range”, the “in vitro activity against sessile Candida albicans cells within biofilms” value ([5]; sessile cells within biofilms) was “potent in vitro activity” and the “activity against Candida spp.” value (Candida spp.) was “active”. For the same compound, the “activity against Candida biofilms” value [2] was “showed activity”.
For `[H]/N=C(\N/C(=N/[H])NCCCCCCNC(=N)NC(=N)Nc1ccc(Cl)cc1)Nc1ccc(Cl)cc1` [chlorhexidine], the “activity against Candida biofilms” value [2] is listed as “resistant”.
For `OC(Cn1cncn1)(Cn1cncn1)c1ccc(F)cc1F` [fluconazole], the “activity against Candida biofilms” value [2] is listed as “resistant”.
For `CCCCCOc1ccc(-c2cc(-c3ccc(C(=O)N[C@H]4C[C@@H](O)[C@@H](O)NC(=O)[C@@H]5[C@@H](O)[C@@H](C)CN5C(=O)[C@H]([C@H](O)CC(N)=O)NC(=O)[C@H]([C@H](O)[C@@H](O)c5ccc(O)c(OS(=O)(=O)O)c5)NC(=O)[C@@H]5C[C@@H](O)CN5C(=O)[C@H]([C@@H](C)O)NC4=O)cc3)no2)cc1` [micofungin] (X1-[Orn(4R-OH,5R-OH)]T[Hyp][hTyr(3S-OH,4S-OH,3'-OSO3H)][Gln(3R-OH)][Pro(3S-OH,4S-Me)]; lactam 1-C), the “activity against Candida biofilms” value [2] is given as “showed activity”.
For `C[C@@H]1[C@H](O)[C@@H](C)/C=C/C=C/CC/C=C/C=C/C=C/C=C/C(O[C@H]2O[C@H](C)[C@@H](O)[C@H](N)[C@@H]2O)CC2O[C@](O)(CC(O)C(O)CCC(O)CC(O)CC(O)CC(=O)O[C@H]1C)CC(O)C2C(=O)O` (some centres unmarked) [nystatin], the “clearing of a feeding tube colonized with Candida” value [1] is given as “unsuccessful”, the “activity against Candida biofilms” value [2] is given as “resistant” and the “clearing the yeast crust from the inner surface of the tube” value [3] is given as “unsuccessful”.
In the case of `C[C@@H](c1nc(-c2ccc(C#N)cc2)cs1)[C@](O)(Cn1cncn1)c1ccc(F)cc1F` [ravuconazole], the “activity against Candida biofilms” value [2] is listed as “resistant”.
For `CN(C/C=C/C#CC(C)(C)C)Cc1cccc2ccccc12` [terbenafine], the “activity against Candida biofilms” value [2] is given as “resistant”.
In the case of `C[C@@H](c1ncncc1F)[C@](O)(Cn1cncn1)c1ccc(F)cc1F` [voriconazole], the “activity against Candida biofilms” value [2] is given as “resistant”.
For neomycin, the “prophylaxis of fungal colonization of feeding tubes” value [6] is listed as “failed”.
